Measurements reported in PubChem BioAssay (NCI).
Where “and” joins values, the source holds several entries; their conditions need not be identical. Equal entries are not always repeated.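 Cultured in 96-well plates, cells were exposed to test compound for 48 hours across five concentrations. At the GI50, growth is halved. The concentration for full growth arrest is given as TGI.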

Assays:
Assay in all cases: DTP human tumour cell line panel, 48 h
[1] = test system: OVCAR-3 ovarian
[2] = test system: A498 renal
[3] = test system: OVCAR-5 ovarian
[4] = test system: HT29 colon
[5] = test system: OVCAR-4 ovarian
[6] = test system: KM20L2 colon
[7] = test system: SF-295 CNS
[8] = test system: DMS 114 small cell lung
[9] = test system: SF-268 CNS
[10] = test system: PC-3 prostate

Structure (SMILES)	TGI [1]	TGI [2] [µM]	TGI [3]	TGI [4]	TGI [5]	TGI [6] [µM]	TGI [7]	TGI [8]	TGI [9]	GI50 [1] [µM]	GI50 [3] [µM]	GI50 [4] [µM]	GI50 [5]	GI50 [6] [µM]	GI50 [8] [µM]	GI50 [9] [µM]	GI50 [7]	GI50 [10]	TGI [10] [µM]
COC(=O)[C@@H](O)[C@](O)(CCC(C)C)C(=O)O[C@@H]1C(OC)=C[C@]23CCCN2CCc2cc4c(cc2[C@H]13)OCO4	7.15 µM	4.45	15.2 µM	12.2 µM	5.77 µM	9.49	5.68 µM	2.2 µM	3.37 µM	–	–	–	–	–	–	–	–	–	–
Cc1ccc(NC(=O)CC2Sc3ccccc3NC2=O)cc1C (stereo unspecified)	> 100 µM	> 100	> 100 µM	> 100 µM	> 100 µM	> 100	> 100 µM	> 100 µM	> 100 µM	–	–	–	–	–	–	–	–	–	–
Nc1nc(SCCC/C=C/I)nc2c1ncn2C1OC(COP(=O)(O)O)C(O)C1O (stereo unspecified)	> 100 µM	> 100	> 100 µM	> 100 µM	> 100 µM	> 100	> 100 µM	> 100 µM	> 100 µM	–	–	–	–	–	–	–	–	–	–
O=C1C=C[C@@H](COC2OC(CO)C(O)C(O)C2O)O1 (stereo partly specified)	22.4 µM and 31.5 µM	30.6	50.4 µM and 36.8 µM	5.69 µM and 19.2 µM	28.2 µM and 33.6 µM	38	41.8 µM and 45 µM	14.2 µM and 28.5 µM	17.8 µM and 62.6 µM	10.6	28.5	1.62	13.2 µM	14.4	3.73	4.59	–	–	–
Cc1ccc(-c2cc(-c3ccco3)c(C#N)c(=S)n2C2OC(CO)C(O)C(O)C2O)cc1 (stereo unspecified)	55.9 µM and 90.7 µM	> 100	> 100 µM	> 100 µM	53.6 µM and > 100 µM	–	31.3 µM and > 100 µM	–	> 100 µM	–	–	–	14.5 µM and > 100 µM	–	–	44.8	11.8 µM and 28.6 µM	17.4 µM and > 100 µM	> 100
CCOC(=O)N1CCN(Cc2cc(=O)n3ccc(C)cc3n2)CC1	> 100 µM	> 100	> 100 µM	> 100 µM	> 100 µM	–	> 100 µM	–	> 100 µM	–	–	–	–	–	–	–	–	–	> 100
CC(=O)/C=C/C1=C(C)CCCC1(C)CC(C)C (stereo unspecified)	83 µM	> 100	> 100 µM	87.5 µM	> 100 µM	–	> 100 µM	–	> 100 µM	–	–	–	–	–	–	–	–	–	> 100
CC1=Nc2ccccc2OC(C)=C1N=Nc1ccc2nc(C)[nH]c2c1	> 100 µM	99.5	> 100 µM	> 100 µM	> 100 µM	–	> 100 µM	–	> 100 µM	–	–	–	–	–	–	–	–	–	> 100
CCCCOC(=O)Nc1ccc(S(=O)(=O)Nc2ccccc2Cl)cc1	44.3 µM	27.8	55.4 µM	35.9 µM	41.2 µM	–	32.9 µM	–	36.5 µM	–	–	–	–	–	–	–	–	–	58.4
C[C@]12CCC3C4=C(CCC3C1CCC2=O)C(=O)[C@H]1O[C@H]1C4=O (stereo partly specified)	3.15 µM	31.1	10.4 µM	3.45 µM	7.96 µM	–	29.8 µM	–	5.32 µM	–	–	–	–	–	–	–	–	–	11.5
N#CC(NCc1cccc(CNC(C#N)c2ccccc2)c1)c1ccccc1 (stereo unspecified)	> 100 µM	> 100	> 100 µM	30.8 µM	> 100 µM	–	> 100 µM	–	> 100 µM	–	–	–	–	–	–	–	–	–	> 100
O=[N+]([O-])c1cc(C=NC23CC4CC(CC(C4)C2)C3)ccc1Cl	33.9 µM	> 100	> 100 µM	39.8 µM	36.3 µM	–	96.9 µM	–	> 85.9 µM	–	–	–	–	–	–	–	–	–	47.5
O=C(/C=C/c1ccccc1)C[C@@H](O)C[C@@H]1CC=CC(=O)O1	13.3 µM	30.9	36.4 µM	16.8 µM	45.7 µM	–	28 µM	–	27.7 µM	–	–	–	–	–	–	–	–	–	31.8
CC(=O)c1c2c(c3ccccc3c1O)O[C@@H]1OCC[C@H]21	> 100 µM	> 100	> 100 µM	> 100 µM	> 100 µM	–	> 100 µM	–	> 100 µM	–	–	–	–	–	–	–	–	–	> 100
COC(=O)c1c(C)nc2c1cc(O)c1[nH]c(C)c(C)nc12	> 100 µM	> 100	> 100 µM	> 100 µM	> 100 µM	–	> 100 µM	–	> 100 µM	–	–	–	–	–	–	–	–	–	> 100
Nc1ncnc2c1[nH]c(=O)n2-c1ccccc1	> 100 µM	> 100	> 100 µM	> 100 µM	> 100 µM	–	> 100 µM	–	> 100 µM	–	–	–	–	–	–	–	–	–	> 100
COc1cccc(Nc2nc(-c3cccs3)nc3cc(OC)c(OC)cc23)c1	51.1 µM	48.5	> 100 µM	48.8 µM	> 100 µM	–	53.1 µM	–	> 100 µM	–	–	–	–	–	–	–	–	–	92.7
N#CC(Cc1ccccc1)N(CCC1=CCCCC1)C(c1ccccc1)c1ccccc1 (stereo unspecified)	> 100 µM	> 100	> 100 µM	> 100 µM	> 100 µM	–	> 100 µM	–	> 100 µM	–	–	–	–	–	–	–	–	–	> 100
Nc1c(-c2ccc(Cl)c(Cl)c2)c2ccc([N+](=O)[O-])cc2c(=O)n1-c1nc2ccccc2s1	> 100 µM	24.3	> 74.2 µM	> 34.2 µM	> 100 µM	–	20.4 µM	–	> 39.4 µM	–	–	–	–	–	–	–	–	–	> 100
COc1ccc2[nH]cc(/C=C(/C)c3ccncc3)c2c1	> 100 µM	42.5	41.5 µM and > 100 µM	13.1 µM and 10.9 µM	> 100 µM	8.67	12.1 µM and 32.8 µM	7.19 µM and 6.35 µM	> 100 µM	4.16	11.6	3.64	17.9 µM	2.96	2.23	–	3.63 µM	–	–
Cc1cc(-c2nc3ccc(F)cc3s2)ccc1NC(=O)[C@H](C)N	23.7 µM	21.7	21.7 µM	8.38 µM	24.4 µM	–	24.7 µM	–	22.8 µM	–	–	–	–	–	–	–	–	–	24.3
O=C(Cc1ccc(O)c(O)c1)NCc1c[nH]c2ccccc12	> 100 µM	> 100	> 100 µM	> 100 µM	> 100 µM	–	> 100 µM	–	> 100 µM	–	–	–	–	–	–	–	–	–	> 100
NC1(c2cc3ccccc3s2)CCCC1	> 100 µM	> 100	> 100 µM	> 100 µM	> 100 µM	–	> 100 µM	–	> 100 µM	–	–	–	–	–	–	–	–	–	81.4
CC(=O)Nc1nc(NC(C)=O)c2[nH]c(CO)nc2n1	> 100 µM	> 100	> 100 µM	> 100 µM	> 100 µM	–	> 100 µM	–	> 100 µM	–	–	–	–	–	–	–	–	–	> 100
Cc1cc(Nc2ccc(S(=O)(=O)O)c3cc(S(=O)(=O)O)cc(S(=O)(=O)O)c23)c2ccccc2n1	> 100 µM	> 100	> 100 µM	> 100 µM	> 100 µM	–	> 100 µM	–	> 100 µM	–	–	–	–	–	–	–	–	–	> 100
N#C/C(=C1/Sc2c(nc[nH]c2=O)N1c1ccccc1)c1nc2ccccc2[nH]1	> 100 µM	> 100	> 100 µM	> 100 µM	> 100 µM	> 100	> 100 µM	> 100 µM	> 100 µM	–	–	–	–	–	–	–	–	–	–
C=C1CCN2CC[C@@H](OC(=O)/C(C)=C\C)[C@@H]12	> 100 µM	> 100	> 100 µM	> 100 µM	> 100 µM	–	> 100 µM	–	> 100 µM	–	–	–	–	–	–	–	–	–	> 100
COc1cc(S(=O)(=O)Nc2nc(-c3ccc(N4C(=O)C(CC(=O)O)SC4c4cccs4)cc3)cs2)ccc1Cl (stereo unspecified)	> 100 µM	> 100	> 100 µM	> 100 µM	66.4 µM	–	> 100 µM	–	50.9 µM	–	–	–	–	–	–	–	–	–	> 100
CC1CN(C)c2ccccc2N=C1NN (stereo unspecified)	> 100 µM	> 100	> 100 µM	> 100 µM	> 100 µM	–	> 100 µM	–	> 100 µM	–	–	–	–	–	–	–	–	–	> 100
